Measurements published in PMC9643853, “Synthesis and evaluation of 3-alkynyl-5-aryl-7-aza-indoles as broad-spectrum antiviral agents” (Frontiers in Chemistry, 2022).
Where two headings read alike, the source gives them in different places.

What was measured:
[1] = test system: VEEV (TC-83); test: microbe, parasite or virus in culture; assay type: cell-based; conditions: Venezuelan equine encephalitis virus, U-87 MG, 18 h, read-out: VEEV EC50
[2] = in vitro; conditions: human
[3] = test system: RSV-A; test: RSV-A cytopathic effect (CPE) reduction assay in HEp-2 cells, MTS read-out; assay type: cell-based, human respiratory syncytial virus, RSV-A strain Long; conditions: for EC50: read-out: RSV-A EC50
[4] = test system: SARS-CoV-2; test: microbe, parasite or virus in culture; assay type: cell-based, SARS-CoV-2 BetaCov/Belgium/GHB-03021/2020; conditions: Severe acute respiratory syndrome coronavirus 2, 96 h, read-out: SARS-CoV-2 EC50
[5] = in vitro; conditions: African green monkey
[6] = in vitro; conditions: human; remark: listed apart in the source
[7] = human respiratory syncytial virus, HEp-2, 96 h
[8] = HEp-2 cells, inhibition of virus-induced cytopathogenicity by 50%, MOI 0.01, 4 days

| Compound | EC50 [1] | CC50 [2] | EC50 [3, 7] | EC50 [4] | CC50 [5] | CC50 at 4 days [6] | loss in anti-RSV activity relative to compound 8f ([3]; HEp-2 cells) | anti-RSV activity (in words) ([3]; HEp-2 cells) | EC50 [3, 8] |
| --- | --- | --- | --- | --- | --- | --- | --- | --- | --- |
| O=C(c1cccc(-c2cnc3[nH]cc(C#Cc4cccnc4)c3c2)c1)N1CCCC1 [Compound 8L] | > 10 µM | > 10 µM | 1 ± 0.94 µM | 0.96 ± 0.32 µM | 6.46 ± 1.75 µM | 5.71 ± 0.044 µM | – | – | – |
| CNC(=O)c1ccc(-c2cnc3[nH]cc(C#Cc4cccnc4)c3c2)cc1 [Compound 8a] | 2.72 ± 0.93 µM | > 10 µM | 0.89 ± 0.4 µM | – | – | 6 ± 5.66 µM | – | – | – |
| O=C(NC1CC1)c1ccc(-c2cnc3[nH]cc(C#Cc4cccnc4)c3c2)cc1 [Compound 8d] | > 10 µM | > 10 µM | 4.63 ± 3.71 µM | – | – | 50 µM | – | – | – |
| CC(C)CNC(=O)c1cccc(-c2cnc3[nH]cc(C#Cc4cccnc4)c3c2)c1 [Compound 8g] | 3.75 ± 1.08 µM | > 10 µM | 0.66 ± 0.22 µM | 0.76 ± 0.46 µM | > 85 µM | 3.38 ± 1.01 µM | – | – | – |
| COCCNC(=O)c1cccc(-c2cnc3[nH]cc(C#Cc4cccnc4)c3c2)c1 [Compound 8h] | 2.48 ± 1.27 µM | > 10 µM | 0.72 ± 0.46 µM | 2.13 ± 1.91 µM | > 100 µM | 17.3 ± 7.88 µM | – | – | – |
| O=C(NCc1ccccc1)c1cccc(-c2cnc3[nH]cc(C#Cc4cccnc4)c3c2)c1 [Compound 8i] | 1.29 ± 1.41 µM | > 10 µM | 2.71 ± 2.88 µM | – | – | > 50 µM | – | – | – |
| CN(C)C(=O)c1cccc(-c2cnc3[nH]cc(C#Cc4cccnc4)c3c2)c1 [Compound 8j] | 4.57 ± 4.87 µM | > 10 µM | 3.65 ± 2.28 µM | – | – | > 50 µM | – | – | – |
| CCN(CC)C(=O)c1cccc(-c2cnc3[nH]cc(C#Cc4cccnc4)c3c2)c1 [Compound 8k] | > 10 µM | > 10 µM | 0.97 ± 0.18 µM | 10.2 ± 0.14 µM | 88.5 ± 1.41 µM | 4.04 ± 0.14 µM | – | – | – |
| O=C(c1cccc(-c2cnc3[nH]cc(C#Cc4cccnc4)c3c2)c1)N1CCOCC1 [Compound 8m] | > 10 µM | > 10 µM | 3.42 ± 4.4 µM | – | – | 10.9 ± 0.69 µM | – | – | – |
| O=C(NC1CC1)c1cccc(-c2cnc3[nH]cc(C#Cc4ccc(F)nc4)c3c2)c1 [Compound 9a] | 6.54 ± 1.21 µM | > 10 µM | 1.76 ± 0.91 µM | – | – | > 50 µM | 10 fold | – | – |
| COc1cncc(C#Cc2c[nH]c3ncc(-c4cccc(C(=O)NC5CC5)c4)cc23)c1 [Compound 9b] | 1.39 ± 0.2 µM | 8.99 ± 1.6 µM | 0.24 ± 0.057 µM | – | – | 22.2 ± 3.68 µM | – | – | – |
| Cc1cncc(C#Cc2c[nH]c3ncc(-c4cccc(C(=O)NC5CC5)c4)cc23)c1 [Compound 9c] | 1.8 ± 0.32 µM | > 10 µM | 0.18 ± 0.085 µM | 1.82 ± 0.83 µM | > 100 µM | > 50 µM | – | – | – |
| O=C(NC1CC1)c1cccc(-c2cnc3[nH]cc(C#Cc4ccccc4)c3c2)c1 [Compound 9d] | > 10 µM | > 10 µM | 0.82 ± 0.22 µM | – | – | > 50 µM | – | – | – |
| O=C(NC1CC1)c1cccc(-c2cnc3[nH]cc(C#Cc4ccsc4)c3c2)c1 [Compound 9e] | > 10 µM | > 10 µM | 0.51 ± 0.16 µM | – | – | > 50 µM | – | – | – |
| O=C(NC1CC1)c1cccc(-c2cnc3[nH]cc(C#Cc4cccc(Cl)c4)c3c2)c1 [Compound 9f] | 6.7 ± 2.79 µM | > 10 µM | > 50 µM | – | – | > 50 µM | – | inactive | – |
| COc1cccc(C#Cc2c[nH]c3ncc(-c4cccc(C(=O)NC5CC5)c4)cc23)c1 [Compound 9g] | 5.27 ± 1.01 µM | > 10 µM | 0.1 ± 0.19 µM | – | – | > 20 µM | – | – | – |
| N#C[C@@]1(c2ccc3c(N)ncnn23)O[C@H](CO)[C@@H](O)[C@H]1O [GS-441524, reference compound] | – | – | – | 0.7 ± 0.07 µM | – | – | – | – | – |
| CN1CCN(C)/C(=N/c2ccc([N+](=O)[O-])cc2C(=O)Nc2ccccc2)C1 [ML-336, (E)-2-((1,4-Dimethylpiperazin-2-ylidene)amino)-5-nitro-N-phenylbenzamide, reference compound] | 0.04 ± 0.01 µM | > 10 µM | – | – | – | – | – | – | – |
| NC(=O)c1ncn([C@@H]2O[C@H](CO)[C@@H](O)[C@H]2O)n1 [Ribavirin, reference compound] | – | – | 3.11 ± 1.85 µM | – | – | > 50 µM | – | – | – |
| Cc1ccc(CCCO)c(NCc2ccc3nc(NCCCN4CCOCC4)n(Cc4nc(C)ccc4O)c3c2)c1 [TMC353121, reference compound] | – | – | – | – | – | – | – | – | 0.0013 ± 0.0008 µM |
| dextran sulfate sodium salt [DS-10000, reference compound] | – | – | – | – | – | – | – | – | 0.068 ± 0.045 µM |
